In ChEMBL document CHEMBL1201862, “PubChem BioAssay data set” (2004):
Calls of active or inactive are those of the source.

Assays:
Cannabinoid receptor 1 [1] = biological target: T1, Cannabinoid receptor 1 (Homo sapiens, UniProt P21554); assay: SAR analysis of agonists of the Cannabinoid Receptor 1 using an Image-Based Assay - Set 2. [Related pubchem assays (depositor defined):AID2013, AID2026]; type: functional
[2] = biological target: T2, G-protein coupled receptor 55 (Homo sapiens, UniProt Q9Y2T6); assay: GPR55 antagonist potency of analogs, SAR follow-up, imaging, U2OS, beta-arrestin-GFP, LPI agonist, set 2 (AID 2820); type: functional
T2 sequence (Q9Y2T6 whole entry): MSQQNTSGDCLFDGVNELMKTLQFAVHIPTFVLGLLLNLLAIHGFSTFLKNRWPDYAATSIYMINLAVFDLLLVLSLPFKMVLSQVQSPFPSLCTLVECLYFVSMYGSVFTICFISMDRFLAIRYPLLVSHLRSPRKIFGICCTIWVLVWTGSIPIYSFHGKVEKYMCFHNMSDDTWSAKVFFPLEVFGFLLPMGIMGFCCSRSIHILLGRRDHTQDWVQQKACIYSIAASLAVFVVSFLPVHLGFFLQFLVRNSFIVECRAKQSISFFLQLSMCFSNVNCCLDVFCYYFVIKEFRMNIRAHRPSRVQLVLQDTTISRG

[3] = biological target: T3, G-protein coupled receptor 35 (Homo sapiens, UniProt Q9HC97); assay: SAR analysis of Agonists of the GPR35 Receptor using an Image-Based Assay - Set 2. [Related pubchem assays (depositor defined):AID2013, AID2026]; type: functional
T3 sequence (Q9HC97 whole entry): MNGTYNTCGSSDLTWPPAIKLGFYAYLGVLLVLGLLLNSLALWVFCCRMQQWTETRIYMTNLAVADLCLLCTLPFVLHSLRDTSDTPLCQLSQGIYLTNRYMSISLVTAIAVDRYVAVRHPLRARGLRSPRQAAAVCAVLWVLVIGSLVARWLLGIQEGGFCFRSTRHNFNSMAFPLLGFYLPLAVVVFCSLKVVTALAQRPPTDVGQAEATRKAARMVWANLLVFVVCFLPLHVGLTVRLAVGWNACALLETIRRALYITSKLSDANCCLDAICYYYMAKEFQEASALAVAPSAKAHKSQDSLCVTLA

Cannabinoid receptor 1 [4] = biological target: T1, Cannabinoid receptor 1; assay: SAR analysis of antagonists of the Cannabinoid Receptor 1 using an Image-Based Assay - Set 2. [Related pubchem assays (depositor defined):AID2013, AID2026]; type: functional
[5] = biological target: T4, Microphthalmia-associated transcription factor (Homo sapiens, UniProt O75030); assay: TRPM1 promoter luciferase signal decrease, dose response, MITF inhibitor project, cell-based, SK-MEL-5, cherry-picked, set 3 (AID 493073); type: functional
T4 sequence (O75030 whole entry): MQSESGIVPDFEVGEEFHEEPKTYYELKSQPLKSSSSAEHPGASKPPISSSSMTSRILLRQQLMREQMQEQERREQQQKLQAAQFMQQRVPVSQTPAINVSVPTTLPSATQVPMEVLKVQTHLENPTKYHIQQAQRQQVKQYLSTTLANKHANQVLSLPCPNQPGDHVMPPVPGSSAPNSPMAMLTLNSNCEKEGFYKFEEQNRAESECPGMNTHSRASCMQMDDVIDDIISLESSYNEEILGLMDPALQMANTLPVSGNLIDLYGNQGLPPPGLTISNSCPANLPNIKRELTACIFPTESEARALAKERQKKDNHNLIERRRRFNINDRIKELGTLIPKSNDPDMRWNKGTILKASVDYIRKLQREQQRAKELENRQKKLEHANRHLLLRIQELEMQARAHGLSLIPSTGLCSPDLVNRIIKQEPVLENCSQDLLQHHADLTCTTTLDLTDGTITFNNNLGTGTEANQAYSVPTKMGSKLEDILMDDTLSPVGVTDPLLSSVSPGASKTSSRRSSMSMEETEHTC

Cannabinoid receptor 2 [6] = biological target: T5, Cannabinoid receptor 2 (Homo sapiens, UniProt P34972); assay: SAR analysis of agonists of the Cannabinoid Receptor 2 using an Image-Based Assay. [Related pubchem assays (depositor defined):AID2013, AID2026]; type: functional
T5 sequence (P34972 whole entry): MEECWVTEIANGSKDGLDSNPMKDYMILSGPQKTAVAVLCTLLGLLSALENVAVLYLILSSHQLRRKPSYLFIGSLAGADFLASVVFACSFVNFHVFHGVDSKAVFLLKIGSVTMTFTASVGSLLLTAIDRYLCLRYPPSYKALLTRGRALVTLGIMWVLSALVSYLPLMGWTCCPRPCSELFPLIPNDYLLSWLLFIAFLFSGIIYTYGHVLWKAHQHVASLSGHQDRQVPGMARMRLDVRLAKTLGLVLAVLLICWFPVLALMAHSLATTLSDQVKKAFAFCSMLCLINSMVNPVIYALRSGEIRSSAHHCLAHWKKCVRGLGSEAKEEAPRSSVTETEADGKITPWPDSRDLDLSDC

[7] = biological target: T2, G-protein coupled receptor 55; assay: GPR55 antagonists blocking LPI-driven arrestin recruitment, primary screen, imaging, U2OS, beta-arrestin-GFP, LPI agonist (AID 2013); type: functional;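 further: antagonist potency measured as reduced agonist-driven arrestin aggregation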
A-375 = assay: MITF: Counter assay: A375 proliferation Measured in Cell-Based System Using Plate Reader - 2084-03_Inhibitor_Dose_DryPowder_Activity. [Related pubchem assays (depositor defined):AID488944]; type: functional; conditions: Homo sapiens
Cannabinoid receptor 2 [8] = biological target: T5, Cannabinoid receptor 2; assay: SAR analysis of antagonists of the Cannabinoid Receptor 2 using an Image-Based Assay. [Related pubchem assays (depositor defined):AID2013, AID2026]; type: functional
[9] = biological target: T3, G-protein coupled receptor 35; assay: SAR analysis of Antagonists of the GPR35 Receptor using an Image-Based Assay - Set 3. [Related pubchem assays (depositor defined):AID2013, AID2026]; type: functional
[10] = biological target: Peroxisome proliferator-activated receptor gamma/Nuclear receptor coactivator 1 (Homo sapiens, UniProt P37231); assay: TR-FRET dose response biochemical High Throughput Screening assay for agonists of the steroid receptor coactivator 1 (SRC-1) recruitment by the peroxisome proliferator-activated receptor gamma (PPAR gamma): non-selective agonists. [Related pubchem assays (depositor defined):AID1300, AID1808, AID504735, AID631]; type: protein assay
[11] = biological target: Peroxisome proliferator-activated receptor gamma/Nuclear receptor coactivator 2 (Homo sapiens, UniProt P37231); assay: (§1) TR-FRET dose response biochemical High Throughput Screening assay for agonists of the steroid receptor coactivator 2 (SRC-2) recruitment by the peroxisome proliferator-activated receptor gamma (PPAR gamma): non-selective agonists. [Related pubchem assays: 1297, 1032 ]; type: functional
[12] = biological target: Peroxisome proliferator-activated receptor gamma/Nuclear receptor coactivator 3 (Homo sapiens, UniProt P37231); assay: as §1, with “3 (SRC-3)” for “2 (SRC-2)”, “1301 (Confirmation screen.), 1048 (Primary screen.)]” for “1297, 1032 ]”; type: functional
Large T antigen = Large T antigen (Simian virus 40, UniProt P03070); type: functional, Betapolyomavirus macacae;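 further: Confirmatory-stage PubChem screen for compounds that inhibit SV40 T antigen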
Sequence of Large T antigen (P03070 whole entry): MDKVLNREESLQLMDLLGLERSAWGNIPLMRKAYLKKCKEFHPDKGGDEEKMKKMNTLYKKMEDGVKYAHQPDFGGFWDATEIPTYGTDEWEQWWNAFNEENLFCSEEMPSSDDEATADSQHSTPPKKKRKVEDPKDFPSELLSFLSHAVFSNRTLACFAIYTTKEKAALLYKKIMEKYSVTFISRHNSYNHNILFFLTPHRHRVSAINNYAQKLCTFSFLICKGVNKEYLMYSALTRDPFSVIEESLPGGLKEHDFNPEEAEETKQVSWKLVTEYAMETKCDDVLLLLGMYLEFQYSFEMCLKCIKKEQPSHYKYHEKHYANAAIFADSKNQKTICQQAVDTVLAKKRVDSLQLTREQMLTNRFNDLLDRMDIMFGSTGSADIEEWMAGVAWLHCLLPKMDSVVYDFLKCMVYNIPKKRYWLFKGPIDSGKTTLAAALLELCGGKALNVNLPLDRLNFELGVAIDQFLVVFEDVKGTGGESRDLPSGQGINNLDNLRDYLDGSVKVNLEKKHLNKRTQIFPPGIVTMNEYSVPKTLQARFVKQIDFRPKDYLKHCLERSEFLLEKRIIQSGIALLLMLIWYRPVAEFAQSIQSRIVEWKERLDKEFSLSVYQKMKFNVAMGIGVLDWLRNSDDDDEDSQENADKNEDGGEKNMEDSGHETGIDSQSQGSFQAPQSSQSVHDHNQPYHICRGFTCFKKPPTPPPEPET

[13] = biological target: T6, Zinc finger protein mex-5 (Caenorhabditis elegans, UniProt Q9XUB2); assay: MEX-5/TCR-2 RNA interaction inhibitors, dose response, biochemical, C. elegans, fluorescence polarization (AID 1960)
T6 sequence (Q9XUB2 whole entry): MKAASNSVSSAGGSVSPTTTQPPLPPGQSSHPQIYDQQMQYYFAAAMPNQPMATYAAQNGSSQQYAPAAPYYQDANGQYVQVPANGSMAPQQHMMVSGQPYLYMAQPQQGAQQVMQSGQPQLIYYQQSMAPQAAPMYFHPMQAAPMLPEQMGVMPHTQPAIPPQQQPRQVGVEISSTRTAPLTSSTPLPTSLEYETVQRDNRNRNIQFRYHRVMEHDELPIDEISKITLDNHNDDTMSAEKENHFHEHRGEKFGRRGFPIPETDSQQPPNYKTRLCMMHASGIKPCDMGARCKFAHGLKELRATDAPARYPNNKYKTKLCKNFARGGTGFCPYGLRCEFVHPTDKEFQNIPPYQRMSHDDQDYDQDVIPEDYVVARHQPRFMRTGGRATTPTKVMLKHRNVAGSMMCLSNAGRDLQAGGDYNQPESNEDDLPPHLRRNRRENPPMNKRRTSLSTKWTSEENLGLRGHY

[14] = biological target: T7, Alkaline phosphatase, tissue-nonspecific isozyme (Homo sapiens, UniProt P05186); assay: TNAP enzyme inhibition by screening hits, dose response, selectivity assay for mouse IAP inhibitor project, biochemical, human TNAP, uHTS hits (AID 488906); type: functional
T7 sequence (P05186 whole entry): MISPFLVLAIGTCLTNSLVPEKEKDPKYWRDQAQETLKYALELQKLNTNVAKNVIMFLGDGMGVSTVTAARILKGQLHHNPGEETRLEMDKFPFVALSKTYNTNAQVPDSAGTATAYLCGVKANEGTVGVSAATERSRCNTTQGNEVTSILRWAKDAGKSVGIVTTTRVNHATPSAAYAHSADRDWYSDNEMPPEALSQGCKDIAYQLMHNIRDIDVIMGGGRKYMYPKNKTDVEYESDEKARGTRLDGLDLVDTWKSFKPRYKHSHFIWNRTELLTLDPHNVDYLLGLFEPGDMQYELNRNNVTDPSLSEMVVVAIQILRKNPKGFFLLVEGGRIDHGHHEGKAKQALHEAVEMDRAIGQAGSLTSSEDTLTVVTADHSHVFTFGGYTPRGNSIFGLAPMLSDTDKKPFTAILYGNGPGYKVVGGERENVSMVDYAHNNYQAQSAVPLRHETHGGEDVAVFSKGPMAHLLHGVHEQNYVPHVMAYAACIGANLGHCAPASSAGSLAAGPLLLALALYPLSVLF

[15] = biological target: Hepatocyte nuclear factor 4-alpha (Homo sapiens, UniProt P41235); type: functional, cell-based;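 further: biochemical luminescence-based dose-response counterscreen measuring inhibition of HNF4 dimerization, run alongside a screen for blockers of ABHD5–perilipin-5 interaction; split luciferase complementation of HNF4 fusion proteins in cell lysate measuring dimerization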
Sequence of Hepatocyte nuclear factor 4-alpha (P41235 whole entry, the tested form may be a part): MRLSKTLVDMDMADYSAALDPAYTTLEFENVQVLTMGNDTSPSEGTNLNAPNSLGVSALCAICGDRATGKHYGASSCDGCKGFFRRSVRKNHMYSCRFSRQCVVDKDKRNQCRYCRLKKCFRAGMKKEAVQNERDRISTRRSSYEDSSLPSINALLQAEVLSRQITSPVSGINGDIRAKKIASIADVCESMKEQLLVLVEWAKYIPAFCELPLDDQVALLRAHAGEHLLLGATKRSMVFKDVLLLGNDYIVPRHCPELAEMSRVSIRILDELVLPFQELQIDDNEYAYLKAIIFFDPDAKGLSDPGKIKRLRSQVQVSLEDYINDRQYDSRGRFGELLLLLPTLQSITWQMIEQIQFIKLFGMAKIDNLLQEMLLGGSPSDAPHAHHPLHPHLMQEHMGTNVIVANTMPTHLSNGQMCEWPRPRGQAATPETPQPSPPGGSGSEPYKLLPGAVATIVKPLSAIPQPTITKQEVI

[16] = biological target: T8, Intestinal-type alkaline phosphatase (Homo sapiens, UniProt P09923); assay: inhibition of human intestinal alkaline phosphatase – biochemical, dose response (AID 488876); type: functional
T8 sequence (P09923 whole entry, the tested form may be a part): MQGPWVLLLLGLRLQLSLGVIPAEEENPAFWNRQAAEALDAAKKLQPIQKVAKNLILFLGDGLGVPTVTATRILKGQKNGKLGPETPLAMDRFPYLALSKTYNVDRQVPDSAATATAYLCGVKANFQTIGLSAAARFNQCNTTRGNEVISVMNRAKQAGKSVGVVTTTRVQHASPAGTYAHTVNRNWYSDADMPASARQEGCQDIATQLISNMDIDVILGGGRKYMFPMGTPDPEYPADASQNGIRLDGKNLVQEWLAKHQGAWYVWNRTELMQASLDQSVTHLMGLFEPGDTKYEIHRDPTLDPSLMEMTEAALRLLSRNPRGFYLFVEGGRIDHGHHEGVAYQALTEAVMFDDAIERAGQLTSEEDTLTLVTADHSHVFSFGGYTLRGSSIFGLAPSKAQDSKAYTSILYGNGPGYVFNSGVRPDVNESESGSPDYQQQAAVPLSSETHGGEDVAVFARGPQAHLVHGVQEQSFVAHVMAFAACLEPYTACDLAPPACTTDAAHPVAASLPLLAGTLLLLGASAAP

[17] = biological target: T9, RNA-binding protein pos-1 (Caenorhabditis elegans, UniProt G5EF15); assay: inhibitors of POS-1/mex-3 RNA binding, dose response, biochemical, fluorescence polarization (AID 1964);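 further: purified POS-1 fused to maltose binding protein made in E. coli; potency of compounds blocking POS-1 binding to fluorescent RNA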
T9 sequence (G5EF15 whole entry): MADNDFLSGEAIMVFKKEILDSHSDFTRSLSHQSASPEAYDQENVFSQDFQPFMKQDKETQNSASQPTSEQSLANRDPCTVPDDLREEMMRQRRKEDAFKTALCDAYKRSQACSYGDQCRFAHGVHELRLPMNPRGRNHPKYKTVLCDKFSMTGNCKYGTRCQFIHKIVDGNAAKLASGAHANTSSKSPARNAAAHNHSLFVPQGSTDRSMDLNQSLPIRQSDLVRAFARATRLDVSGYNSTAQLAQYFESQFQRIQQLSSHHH

[18] = biological target: Intestinal-type alkaline phosphatase (Mus musculus, UniProt P24822); assay: PubChem AID 488785; type: functional
Sequence of Intestinal-type alkaline phosphatase (Mus musculus, UniProt P24822) (P24822 whole entry): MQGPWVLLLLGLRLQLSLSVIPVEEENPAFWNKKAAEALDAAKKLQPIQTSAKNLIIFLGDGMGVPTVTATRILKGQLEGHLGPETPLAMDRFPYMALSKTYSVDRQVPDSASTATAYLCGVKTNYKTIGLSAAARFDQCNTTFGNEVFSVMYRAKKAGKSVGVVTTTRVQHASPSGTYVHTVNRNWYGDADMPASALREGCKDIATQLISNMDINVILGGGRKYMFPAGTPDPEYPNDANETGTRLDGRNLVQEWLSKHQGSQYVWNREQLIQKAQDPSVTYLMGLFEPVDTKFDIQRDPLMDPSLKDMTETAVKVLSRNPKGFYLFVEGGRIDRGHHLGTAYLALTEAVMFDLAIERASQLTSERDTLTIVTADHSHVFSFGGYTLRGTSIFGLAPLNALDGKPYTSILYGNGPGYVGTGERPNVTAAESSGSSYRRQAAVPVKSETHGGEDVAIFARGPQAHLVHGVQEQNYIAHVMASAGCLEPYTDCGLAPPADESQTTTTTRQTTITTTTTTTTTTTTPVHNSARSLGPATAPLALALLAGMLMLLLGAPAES

Cytochrome P450 1A2 = biological target: T10, Cytochrome P450 1A2 (Homo sapiens, UniProt P05177);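 further: PubChem cytochrome P450 panel assay, CYP1A2 panel member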
T10 sequence (P05177 whole entry): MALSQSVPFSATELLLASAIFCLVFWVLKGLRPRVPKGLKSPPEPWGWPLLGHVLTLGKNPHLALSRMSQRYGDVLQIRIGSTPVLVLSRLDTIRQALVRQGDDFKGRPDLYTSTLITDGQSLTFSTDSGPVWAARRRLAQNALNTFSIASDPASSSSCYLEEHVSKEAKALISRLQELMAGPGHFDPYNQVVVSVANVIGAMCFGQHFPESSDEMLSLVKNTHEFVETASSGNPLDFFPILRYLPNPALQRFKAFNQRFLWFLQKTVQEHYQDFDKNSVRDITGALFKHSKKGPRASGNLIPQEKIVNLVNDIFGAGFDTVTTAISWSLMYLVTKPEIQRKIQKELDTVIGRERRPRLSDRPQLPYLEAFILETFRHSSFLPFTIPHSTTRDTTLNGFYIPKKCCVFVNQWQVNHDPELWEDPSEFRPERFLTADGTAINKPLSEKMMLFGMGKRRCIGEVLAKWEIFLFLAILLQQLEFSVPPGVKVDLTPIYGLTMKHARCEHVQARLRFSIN

[19] = biological target: T8, Intestinal-type alkaline phosphatase; assay: human intestinal alkaline phosphatase activators, dose response, biochemical, luminescence, uHTS hits (AID 463120); type: functional
Cytochrome P450 2C19 = Cytochrome P450 2C19 (Homo sapiens, UniProt P33261); assay: Cytochrome panel assay with activity outcomes. Panel member name: p450-cyp2c19 Compounds with AC50 equal or less than 10 uM are considered active; type: functional
Sequence of Cytochrome P450 2C19 (P33261 whole entry): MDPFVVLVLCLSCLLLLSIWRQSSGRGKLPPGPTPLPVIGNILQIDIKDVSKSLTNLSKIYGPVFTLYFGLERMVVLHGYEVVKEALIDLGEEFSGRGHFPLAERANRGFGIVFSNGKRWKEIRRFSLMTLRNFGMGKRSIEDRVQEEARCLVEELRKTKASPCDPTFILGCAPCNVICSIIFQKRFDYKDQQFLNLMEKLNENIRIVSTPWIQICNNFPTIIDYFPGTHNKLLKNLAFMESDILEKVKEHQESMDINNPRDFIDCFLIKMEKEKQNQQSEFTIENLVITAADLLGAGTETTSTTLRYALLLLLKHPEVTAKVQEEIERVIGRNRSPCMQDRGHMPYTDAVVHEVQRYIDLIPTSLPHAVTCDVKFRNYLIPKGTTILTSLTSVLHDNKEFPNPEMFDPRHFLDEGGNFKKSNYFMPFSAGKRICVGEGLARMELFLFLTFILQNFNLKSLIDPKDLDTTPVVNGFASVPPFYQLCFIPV

Cytochrome P450 2D6 = Cytochrome P450 2D6 (Homo sapiens, UniProt P10635);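 further: CYP2D6 member of a cytochrome P450 panel assay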
Sequence of Cytochrome P450 2D6 (P10635 whole entry): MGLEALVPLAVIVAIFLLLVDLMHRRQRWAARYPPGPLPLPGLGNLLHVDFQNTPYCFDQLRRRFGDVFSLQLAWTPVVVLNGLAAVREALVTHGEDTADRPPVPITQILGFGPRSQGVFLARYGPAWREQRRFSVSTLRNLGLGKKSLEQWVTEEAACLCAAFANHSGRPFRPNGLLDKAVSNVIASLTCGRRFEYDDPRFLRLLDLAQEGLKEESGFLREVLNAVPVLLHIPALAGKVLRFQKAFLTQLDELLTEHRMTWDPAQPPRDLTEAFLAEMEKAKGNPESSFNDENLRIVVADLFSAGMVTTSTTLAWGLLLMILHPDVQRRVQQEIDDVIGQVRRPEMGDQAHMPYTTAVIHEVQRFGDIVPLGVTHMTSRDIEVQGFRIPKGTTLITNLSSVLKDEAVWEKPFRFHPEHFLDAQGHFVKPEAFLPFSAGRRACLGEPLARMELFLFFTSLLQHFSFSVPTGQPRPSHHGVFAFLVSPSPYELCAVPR

Cannabinoid receptor 1 [20] = biological target: T1, Cannabinoid receptor 1; assay: SAR analysis of agonists of the Cannabinoid Receptor 1 using an Image-Based Assay - Set 4. [Related pubchem assays (depositor defined):AID2013, AID2026]; type: functional
Cannabinoid receptor 1 [21] = biological target: T1, Cannabinoid receptor 1; assay: SAR analysis of antagonists of the Cannabinoid Receptor 1 using an Image-Based Assay - Set 4. [Related pubchem assays (depositor defined):AID2013, AID2026]; type: functional
Cannabinoid receptor 2 [22] = biological target: T5, Cannabinoid receptor 2; assay: SAR analysis of antagonists of the Cannabinoid Receptor 2 using an Image-Based Assay - Set 3. [Related pubchem assays (depositor defined):AID2013, AID2026]; type: functional
[23] = biological target: T2, G-protein coupled receptor 55; assay: SAR Analysis of Selective Antagonists of GPR55 using an Image-Based Assay - Set 4. [Related pubchem assays (depositor defined):AID2013, AID2026]; type: functional
Cannabinoid receptor 2 [24] = biological target: T5, Cannabinoid receptor 2; assay: SAR analysis of agonists of the Cannabinoid Receptor 2 using an Image-Based Assay - Set 3. [Related pubchem assays (depositor defined):AID2013, AID2026]; type: functional
[25] = biological target: T3, G-protein coupled receptor 35; assay: SAR analysis of Antagonists of the GPR35 Receptor using an Image-Based Assay - Set 6. [Related pubchem assays (depositor defined):AID2013, AID2026]; type: functional
[26] = biological target: T3, G-protein coupled receptor 35; assay: SAR analysis of Agonists of the GPR35 Receptor using an Image-Based Assay - Set 4. [Related pubchem assays (depositor defined):AID2013, AID2026]; type: functional
[27] = biological target: Voltage-dependent T-type calcium channel subunit alpha-1H (Homo sapiens, UniProt O95180); assay: Cav3.2 T-type channel inhibitors, synthesized analogs, SAR follow-up, cell-based, synthetic library set 2, HEK293 HH8, Fluo-4 (AID 493023); type: functional

T1 sequence (P21554 whole entry): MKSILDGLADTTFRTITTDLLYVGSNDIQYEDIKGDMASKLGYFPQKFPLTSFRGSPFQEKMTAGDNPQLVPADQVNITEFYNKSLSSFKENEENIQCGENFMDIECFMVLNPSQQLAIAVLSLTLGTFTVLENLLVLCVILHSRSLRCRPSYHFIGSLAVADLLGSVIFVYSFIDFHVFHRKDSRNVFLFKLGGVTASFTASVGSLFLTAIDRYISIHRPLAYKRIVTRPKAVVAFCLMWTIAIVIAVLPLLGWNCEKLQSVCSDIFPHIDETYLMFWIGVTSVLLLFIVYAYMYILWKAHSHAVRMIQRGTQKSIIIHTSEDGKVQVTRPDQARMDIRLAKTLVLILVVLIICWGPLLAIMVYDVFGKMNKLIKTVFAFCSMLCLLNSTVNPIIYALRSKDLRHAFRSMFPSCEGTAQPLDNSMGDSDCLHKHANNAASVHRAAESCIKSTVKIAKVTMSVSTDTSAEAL

## COc1ccc(CNCCC(c2ccc(F)cc2)c2ccc(OC)cc2)cc1 (configuration not stated)
Cannabinoid receptor 1 [1]
  EC50: > 32 µM (inactive)
[2]
  IC50: 1.69 µM (active)
[3]
  EC50: 23.1 µM (inactive)
Cannabinoid receptor 1 [4]
  IC50: 2.7 µM (active)
[5]
  AC50: 9.89 µM (active)
Cannabinoid receptor 2 [6]
  EC50: > 32 µM (inactive)
[7]
  IC50: 1.78 µM (active)
A-375
  AC50: 16.3 µM (active)
Cannabinoid receptor 2 [8]
  IC50: 24.2 µM (inactive)
[9]
  IC50: > 32 µM (inactive)

## COc1ccc2c(c1)nc(SCC(=O)c1ccc(Br)s1)n2C
[10]
  EC50: > 79.4 µM (inactive)
[11]
  EC50: 27.7 µM (not active)
[12]
  EC50: > 79.4 µM (not active)

## CN1C(=O)/C(=C/C=C/c2ccco2)C(=O)NC1=S
Large T antigen
  IC50: 11.9 µM (active)
[13]
  EC50: 37.5 µM (active)
[14]
  IC50: 23.5 µM (active)
[15]
  IC50: 2.56 µM (active)
[16]
  IC50: 9.58 µM (active)
[17]
  EC50: 33.5 µM (active)
[18]
  IC50: 11.8 µM (active)

## COc1ccc(C(=O)Nc2cccc3c2C(=O)NC3=O)cc1S(=O)(=O)N1CCOCC1
Cytochrome P450 1A2
  AC50: 1 µM (inconclusive)
[19]
  EC50: > 100 µM (inactive)
Cytochrome P450 2C19
  AC50: inconclusive
Cytochrome P450 2D6
  AC50: inconclusive

## Cc1ccc(-c2nnc(C)c3nn(-c4ccc(C)cc4)cc23)cc1
Cannabinoid receptor 1 [20]
  EC50: > 32 µM (inactive)
Cannabinoid receptor 1 [21]
  IC50: 2.59 µM (active)
Cannabinoid receptor 2 [22]
  IC50: > 18 µM (inactive)
[23]
  IC50: > 32 µM (inactive)
Cannabinoid receptor 2 [24]
  EC50: > 32 µM (inactive)
[25]
  IC50: 15.4 µM (inactive)
[26]
  EC50: > 32 µM (inactive)

## CC(C)(C)CCN1CCC[C@@H](NC(=O)c2cc(Cl)cc(Cl)c2)C1
[27]
  EC50: 10 µM (active)
